From ChEMBL document CHEMBL1150306, “2-Trifluoroacetylthiophenes, a novel series of potent and selective class II histone deacetylase inhibitors” (Bioorg Med Chem Lett, 2008)

Key:
[1] = target: T1, Histone deacetylase 3 (Homo sapiens, UniProt O15379); experiment: Inhibition of HDAC3
[2] = target: Tubulin; experiment: Inhibition of tubulin deacetylation in human HCT116 cells; assay type: cell-based; conditions: hct-116
[3] = target: Histone deacetylase 4 (Homo sapiens, UniProt P56524, H976Y); experiment: Inhibition of HDAC4GOF mutant expressed in Escherichia coli
Chain of Histone deacetylase 4 (Homo sapiens, UniProt P56524, H976Y) (P56524 whole entry H976Y): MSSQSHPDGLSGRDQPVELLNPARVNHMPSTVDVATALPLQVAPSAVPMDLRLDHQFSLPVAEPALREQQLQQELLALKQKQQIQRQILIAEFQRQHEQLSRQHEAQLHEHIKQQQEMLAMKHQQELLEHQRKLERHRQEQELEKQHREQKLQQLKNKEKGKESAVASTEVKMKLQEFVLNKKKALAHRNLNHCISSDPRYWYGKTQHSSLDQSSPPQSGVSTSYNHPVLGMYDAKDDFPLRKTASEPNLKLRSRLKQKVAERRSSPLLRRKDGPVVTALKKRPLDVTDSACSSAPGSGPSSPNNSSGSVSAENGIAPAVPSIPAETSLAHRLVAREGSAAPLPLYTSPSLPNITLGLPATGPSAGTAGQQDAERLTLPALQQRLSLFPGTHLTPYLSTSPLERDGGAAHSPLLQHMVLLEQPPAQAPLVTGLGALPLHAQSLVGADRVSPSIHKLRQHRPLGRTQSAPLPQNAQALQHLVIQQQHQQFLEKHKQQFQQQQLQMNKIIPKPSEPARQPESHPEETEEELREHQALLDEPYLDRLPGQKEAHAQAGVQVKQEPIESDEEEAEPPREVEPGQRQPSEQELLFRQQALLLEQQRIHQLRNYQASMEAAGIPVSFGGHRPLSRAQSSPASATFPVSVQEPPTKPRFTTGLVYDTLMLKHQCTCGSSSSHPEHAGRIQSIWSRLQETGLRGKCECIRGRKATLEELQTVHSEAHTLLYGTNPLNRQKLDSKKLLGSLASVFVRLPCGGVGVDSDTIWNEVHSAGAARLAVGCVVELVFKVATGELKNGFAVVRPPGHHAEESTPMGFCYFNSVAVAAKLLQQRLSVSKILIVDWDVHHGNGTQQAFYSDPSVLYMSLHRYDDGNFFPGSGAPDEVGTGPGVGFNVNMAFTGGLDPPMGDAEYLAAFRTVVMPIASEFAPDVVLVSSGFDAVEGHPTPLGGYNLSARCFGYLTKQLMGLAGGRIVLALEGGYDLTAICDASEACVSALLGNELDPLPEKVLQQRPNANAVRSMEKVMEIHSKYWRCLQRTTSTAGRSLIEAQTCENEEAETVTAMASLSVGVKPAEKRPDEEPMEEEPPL

[4] = target: Histone deacetylase 1 (Homo sapiens, UniProt Q13547); experiment: Inhibition of HDAC1
Chain of Histone deacetylase 1 (Q13547 whole entry): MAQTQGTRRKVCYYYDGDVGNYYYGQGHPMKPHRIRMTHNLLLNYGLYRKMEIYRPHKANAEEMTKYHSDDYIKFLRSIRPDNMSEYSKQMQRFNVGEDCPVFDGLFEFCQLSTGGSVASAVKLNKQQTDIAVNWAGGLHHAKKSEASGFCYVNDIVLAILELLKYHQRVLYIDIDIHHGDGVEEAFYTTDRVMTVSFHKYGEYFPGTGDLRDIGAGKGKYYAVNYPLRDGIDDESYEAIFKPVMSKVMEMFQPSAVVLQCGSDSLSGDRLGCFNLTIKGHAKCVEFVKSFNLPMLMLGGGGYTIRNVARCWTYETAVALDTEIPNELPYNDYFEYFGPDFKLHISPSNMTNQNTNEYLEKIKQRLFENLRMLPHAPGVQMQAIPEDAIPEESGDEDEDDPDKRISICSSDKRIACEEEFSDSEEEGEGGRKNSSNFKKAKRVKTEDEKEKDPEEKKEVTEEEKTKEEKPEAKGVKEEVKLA

[5] = target: T2, Protein deacetylase HDAC6 (Homo sapiens, UniProt Q9UBN7); experiment: Inhibition of HDAC6
T2 sequence (Q9UBN7 whole entry): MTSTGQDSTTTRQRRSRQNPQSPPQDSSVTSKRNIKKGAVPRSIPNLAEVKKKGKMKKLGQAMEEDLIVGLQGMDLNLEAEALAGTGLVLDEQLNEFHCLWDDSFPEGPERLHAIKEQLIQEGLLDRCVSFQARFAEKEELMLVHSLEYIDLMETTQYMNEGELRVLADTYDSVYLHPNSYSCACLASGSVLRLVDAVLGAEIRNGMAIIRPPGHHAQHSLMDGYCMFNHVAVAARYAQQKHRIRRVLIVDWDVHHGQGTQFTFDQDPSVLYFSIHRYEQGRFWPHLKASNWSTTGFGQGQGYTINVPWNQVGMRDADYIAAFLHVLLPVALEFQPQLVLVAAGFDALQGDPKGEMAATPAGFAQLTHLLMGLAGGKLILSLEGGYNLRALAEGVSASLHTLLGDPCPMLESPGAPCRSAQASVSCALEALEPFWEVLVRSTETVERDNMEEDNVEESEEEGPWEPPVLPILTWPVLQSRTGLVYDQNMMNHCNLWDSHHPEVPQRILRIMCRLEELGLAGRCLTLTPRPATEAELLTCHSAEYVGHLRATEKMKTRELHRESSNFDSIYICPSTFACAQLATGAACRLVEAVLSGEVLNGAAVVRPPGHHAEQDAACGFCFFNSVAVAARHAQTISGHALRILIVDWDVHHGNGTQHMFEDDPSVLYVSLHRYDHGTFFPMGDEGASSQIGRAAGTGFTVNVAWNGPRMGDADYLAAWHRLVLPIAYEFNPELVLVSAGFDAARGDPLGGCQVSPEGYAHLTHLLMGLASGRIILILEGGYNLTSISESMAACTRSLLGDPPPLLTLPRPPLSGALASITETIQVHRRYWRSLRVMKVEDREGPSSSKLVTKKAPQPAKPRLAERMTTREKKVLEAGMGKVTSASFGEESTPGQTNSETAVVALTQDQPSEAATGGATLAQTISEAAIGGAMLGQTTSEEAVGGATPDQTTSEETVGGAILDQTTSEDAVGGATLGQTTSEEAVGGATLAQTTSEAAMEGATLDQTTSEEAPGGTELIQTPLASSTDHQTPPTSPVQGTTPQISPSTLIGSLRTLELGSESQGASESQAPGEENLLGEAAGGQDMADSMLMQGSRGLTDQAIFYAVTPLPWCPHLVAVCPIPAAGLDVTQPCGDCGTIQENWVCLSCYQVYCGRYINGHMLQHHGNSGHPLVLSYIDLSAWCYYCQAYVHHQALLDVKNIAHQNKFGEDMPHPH

[6] = target: Histone deacetylase 4 (Homo sapiens, UniProt P56524); experiment: Inhibition of wild type HDAC4 expressed in Escherichia coli
Chain of Histone deacetylase 4 (Homo sapiens, UniProt P56524) (P56524 whole entry): as the sequence (P56524 whole entry H976Y) above, with Y976H counted along it

[7] = target: T1, Histone deacetylase 3; experiment: Inhibition of HDAC3 at 5 uM
[8] = target: T3, Protein deacetylase HDAC6 (Homo sapiens) (UniProt Q9UBN7); experiment: Inhibition of HDAC6 at 9 nM
T3 sequence (whole entry): T2 sequence (Q9UBN7 whole entry)

T1 sequence (O15379 whole entry): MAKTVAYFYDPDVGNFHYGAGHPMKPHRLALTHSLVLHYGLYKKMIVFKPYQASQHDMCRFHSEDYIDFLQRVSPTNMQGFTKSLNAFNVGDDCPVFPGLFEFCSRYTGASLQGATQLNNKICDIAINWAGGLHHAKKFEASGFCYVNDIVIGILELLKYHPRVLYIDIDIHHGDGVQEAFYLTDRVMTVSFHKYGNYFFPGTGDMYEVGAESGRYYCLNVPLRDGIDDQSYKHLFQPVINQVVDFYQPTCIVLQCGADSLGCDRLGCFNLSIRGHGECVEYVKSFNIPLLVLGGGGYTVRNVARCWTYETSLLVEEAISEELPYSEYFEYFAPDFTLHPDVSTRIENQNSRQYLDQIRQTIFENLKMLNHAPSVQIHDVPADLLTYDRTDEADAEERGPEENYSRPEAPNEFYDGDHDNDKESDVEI

Structure (SMILES)	IC50 [1]	IC50 [2]	IC50 [3]	IC50 [4]	IC50 [5]	IC50 [6]	inhibition [7]	inhibition [8]
CN(Cc1ccc2nccnc2c1)C(=O)c1ccc(C(=O)C(F)(F)F)s1	670 nM	12000 nM	87 nM	580 nM	89 nM	98 nM		
O=C(c1ccc(C(=O)C(F)(F)F)s1)N1CCn2c(-c3ccccc3)cnc2C1			370 nM	5500 nM	310 nM	320 nM	44%	
C[C@@H](NC(=O)c1ccc(C(=O)NO)s1)c1ccccc1	10 nM		100 nM			2700 nM		94%
